Source: PMC2225439, “Amyloid as a Depot for the Formulation of Long-Acting Drugs” (PLoS Biology, 2008)
*1 amine or outer side, *2 acyl side, *3 side chain or, on linkers, in order; H or OH if unused. Where a SMILES comes first, the peptide text is derived from it. Side-chain parts run from the residue outwards. [ ]: non-standard residue; d: D form. The star is where a group is joined. dPhe(4-NHCONH2) = NC(=O)Nc1ccc(C[C@@H](N)C(=O)O)cc1; Dihydroorotyl(S) = O=C1C[C@@H](C(=O)*)NC(=O)N1; dPhe(4-NH2) = Nc1ccc(C[C@@H](N)C(=O)O)cc1; dPhe(4-Cl) = N[C@H](Cc1ccc(Cl)cc1)C(=O)O; Phe(4-NH2) = Nc1ccc(C[C@H](N)C(=O)O)cc1; d2Nal = N[C@H](Cc1ccc2ccccc2c1)C(=O)O; Lys(iPr) = CC(C)NCCCC[C@H](N)C(=O)O; NHCH2CH2OCH2CH2OEt = CCOCCOCCN*; d3Pal = N[C@H](Cc1cccnc1)C(=O)O; Methoxycarbamoyl = CONC(=O)*; Nicotinoyl = O=C(c1cccnc1)*; PEG3 = NCCOCCOCCOCCC(=O)O; CO = O=C([*:1])[*:2]; Butyryl = CCCC(=O)*

Assay: Peptide release from amyloid (dialysis experiment)
Settings: dialysis of 30-d-old samples, 35 d
Experimental: Although amyloid fibrils are very stable, they must follow thermodynamic equilibrium conditions between fibril and monomer. […] A total of 200 μl of 30-d-old GnRH analog (in) was dialyzed 4 ml of 5% D-mannitol (out). A 3.5-kDa cutoff, which is twice the size of the peptides studied, was chosen to ensure that the released particles are most likely monomeric. The peptide release and the remaining aggregates were monitored by fluorescence over 35 d at room temperature.
A 200-μl aliquot of aged GnRH in solution conditions given above was transferred into a 0.6-ml Eppendorf tube with a hole in the cap. To study the effect of heparin on peptide release, a mixture of hormone analog and heparin (1:1 v/v) was incubated overnight in parallel with a half-diluted peptide fibril sample in 5% D-mannitol and 0.01% sodium azide. The hole in the cap of the Eppendorf tube was sealed with a 3.5-kDa molecular weight cutoff (MWCO) membrane. Next, the Eppendorf tube was inserted upside down into a 15-ml Falcon tube containing 4 ml of 5% D-mannitol in water and 0.01% sodium azide. Care was taken to make sure that the membrane was exposed to solutions both in and outside and that any bubbles at the membrane interface were removed. The tubes were then incubated at room temperature. To measure the remaining peptide concentration inside the 0.6-ml Eppendorf tube, a 5-μl aliquot was diluted into 500 μl water with 5% D-mannitol, 0.01% sodium azide, and the fluorescence was measured with excitation at 280 nm and emission in the range of 290–500 nm. The excitation slit width was 2 nm, and emission slit width was 11 nm. To determine the peptide concentration outside the membrane in the 15-ml tube, an aliquot of 250 μl of solution was taken from the releasing medium, diluted into 500 μl final volume by 5% D-mannitol, 0.01% sodium azide, and fluorescence was measured. Following spectra recording, the dialysis system was reassembled as described above. […] The normalized intensity maxima from inside and outside the membrane were plotted as a function of time and fit by an exponential function to extract the half-life of the fibrils and the K off, respectively. […] The extracted half-life, t 1/2, is the time taken, during which the fluorescence signal inside the 0.6-ml Eppendorf tube drops by 50%.

Structure (SMILES) | stability of fibrils from release profile (in words)
CONC(=O)NCCOCCOCCOCCC(=O)Nc1ccc(C[C@H](NC(=O)[C@H](CO)NC(=O)[C@@H](Cc2cccnc2)NC(=O)[C@@H](Cc2ccc(Cl)cc2)NC(=O)[C@@H](Cc2ccc3ccccc3c2)NC(C)=O)C(=O)N[C@H](Cc2ccc(NC(N)=O)cc2)C(=O)N[C@@H](CC(C)C)C(=O)N[C@@H](CCCCNC(C)C)C(=O)N2CCC[C@H]2C(=O)N[C@H](C)C(N)=O)cc1 [S2, [Aph(CO-(C2H4O)3-C2H4-NH-CO-NH-OCH3)^5]degarelix] (Ac-[d2Nal][dPhe(4-Cl)][d3Pal]S[Phe(4-NH2)]([PEG3-Methoxycarbamoyl])[dPhe(4-NHCONH2)]L[Lys(iPr)]P[dA]-NH2) | form unstable fibrils
CCCC(=O)N[C@H](Cc1ccc2ccccc2c1)C(=O)N[C@H](Cc1ccc(Cl)cc1)C(=O)N[C@H](Cc1cccnc1)C(=O)N[C@@H](CO)C(=O)N[C@@H](Cc1ccc(NC(=O)NOC)cc1)C(=O)N[C@H](Cc1ccc(NC(=O)NOC)cc1)C(=O)N[C@@H](CC(C)C)C(=O)N[C@@H](CCCCNC(C)C)C(=O)N1CCC[C@H]1C(=O)N[C@H](C)C(N)=O [S4, des-Ac-[Aph(CO-NH-OCH3)^5,D-Aph(CO-NH-OCH3)^6]-CH3-(CH2)2-CO-degarelix] (Butyryl-[d2Nal][dPhe(4-Cl)][d3Pal]S[Phe(4-NH2)](Methoxycarbamoyl)[dPhe(4-NH2)](Methoxycarbamoyl)L[Lys(iPr)]P[dA]-NH2) | form very stable amyloids with very little peptide release
CCOCCOCCNC(=O)Nc1ccc(C[C@@H](NC(=O)[C@H](Cc2ccc(NC(=O)[C@@H]3CC(=O)NC(=O)N3)cc2)NC(=O)[C@H](CO)NC(=O)[C@@H](Cc2cccnc2)NC(=O)[C@@H](Cc2ccc(Cl)cc2)NC(=O)[C@@H](Cc2ccc3ccccc3c2)NC(C)=O)C(=O)N[C@@H](CC(C)C)C(=O)N[C@@H](CCCCNC(C)C)C(=O)N2CCC[C@H]2C(=O)N[C@H](C)C(N)=O)cc1 [S11, [DAph(CONH(C2H4O)2-C2H5]degarelix] (Ac-[d2Nal][dPhe(4-Cl)][d3Pal]S[Phe(4-NH2)](Dihydroorotyl(S))[dPhe(4-NH2)]([CO-NHCH2CH2OCH2CH2OEt])L[Lys(iPr)]P[dA]-NH2) | form unstable fibrils
CC(=O)N[C@H](Cc1ccc2ccccc2c1)C(=O)N[C@H](Cc1ccc(Cl)cc1)C(=O)N[C@H](Cc1cccnc1)C(=O)N[C@@H](CO)C(=O)N[C@@H](CCCCNC(=O)c1cccnc1)C(=O)N[C@H](CCCCNC(=O)c1cccnc1)C(=O)N[C@@H](CC(C)C)C(=O)N[C@@H](CCCCNC(C)C)C(=O)N1CCC[C@H]1C(=O)N[C@H](C)C(N)=O [S6, Ac-DNal-DCpa-DPal-Ser-Lys(Nic)-DLys(Nic)-Leu-ILys-Pro-DAla-NH2, reference compound] (Ac-[d2Nal][dPhe(4-Cl)][d3Pal]SK(Nicotinoyl)[dK](Nicotinoyl)L[Lys(iPr)]P[dA]-NH2) | form unstable fibrils
CCOCCOCCNC(=O)N[C@H](Cc1ccc2ccccc2c1)C(=O)N[C@H](Cc1ccc(Cl)cc1)C(=O)N[C@H](Cc1cccnc1)C(=O)N[C@@H](CO)C(=O)N[C@@H](Cc1ccc(NC(=O)[C@@H]2CC(=O)NC(=O)N2)cc1)C(=O)N[C@H](Cc1ccc(NC(=O)NOC)cc1)C(=O)N[C@@H](CC(C)C)C(=O)N[C@@H](CCCCNC(C)C)C(=O)N1CCC[C@H]1C(=O)N[C@H](C)C(N)=O [S3, des-Ac-[D-Aph(CO-NH-OCH3)^6]-C2H5-(C2H4O)2-NH-CO-degarelix] ({NHCH2CH2OCH2CH2OEt-CO}-[d2Nal][dPhe(4-Cl)][d3Pal]S[Phe(4-NH2)](Dihydroorotyl(S))[dPhe(4-NH2)](Methoxycarbamoyl)L[Lys(iPr)]P[dA]-NH2) | form very stable amyloids with very little peptide release
